The test system of one assay is Streptococcus pneumoniae. The assay is described as follows: Antimicrobial activity against Streptococcus pneumoniae NCTC 7466 by serial dilution/CLSI method. The class given is functional.
Another assay deals with Klebsiella pneumoniae. The assay is described as follows: Antimicrobial activity against Klebsiella pneumoniae ATCC 13883 by serial dilution/CLSI method. The format is functional.
The subject of assay [1] is Staphylococcus aureus. The assay is described as follows: Antimicrobial activity against methicillin-resistant Staphylococcus aureus shhs-A1 clinical isolate by serial dilution/CLSI method. The format is functional.
The next assay deals with SF-268. The assay is described as follows: Cytotoxicity against human SF268 cells after 72 hrs by SRB assay. The format is functional, cell-based. The note with it: SF-268, 72 h. (In general: In SRB staining, fixed cells bind dye roughly in proportion to their protein.)
The subject of the next assay is HepG2. Put plainly: Cytotoxicity against human HepG2 cells after 72 hrs by SRB assay. Conditions: HepG2, 72 h. The class given is functional, cell-based.
Assay [2] deals with Staphylococcus epidermidis. Put plainly: Antimicrobial activity against methicillin-resistant Staphylococcus epidermidis shhs-E1 clinical isolate by serial dilution/CLSI method. The class given is functional.
The test system of a further assay is MCF7. The assay is described as follows: Cytotoxicity against human MCF7 cells after 72 hrs by SRB assay. The class given is functional, cell-based. The note with it: MCF7, 72 h.
The subject of another assay is NCI-H460. The assay is described as follows: Cytotoxicity against human NCI-H460 after 72 hrs by SRB assay. The class given is functional, cell-based. The note with it: NCI-H460, 72 h.
In assay [3] the test system is Staphylococcus aureus. The assay is described as follows: Antimicrobial activity against Staphylococcus aureus ATCC 29213 by serial dilution/CLSI method. The format is functional.

pIC50: −log10 of the molar value. ≈ marks a conversion by molar mass, not a printed value. Non-standard residues stand in square brackets, D forms with d. Residues, ends and D or L forms follow the SMILES beside them. aIle = CC[C@@H](C)[C@H](N)C(=O)O

The MIC is the lowest concentration found to suppress growth. Higher therefore signals weaker potency. As to `CN[C@H](CC(C)C)C(=O)N[C@H]1C(=O)N[C@@H](CC(N)=O)C(=O)N[C@H]2C(=O)N[C@H]3C(=O)N[C@H](C(=O)N[C@H](C(=O)O)c4cc(O)cc(O)c4-c4cc3ccc4O)[C@H](O)c3ccc(c(Cl)c3)Oc3cc2cc(c3O[C@@H]2O[C@H](CO)[C@@H](O)[C@H](O)[C@H]2O[C@H]2C[C@](C)(N)[C@H](O)[C@H](C)O2)Oc2ccc(cc2Cl)[C@H]1O` [VANCOMYCIN], the MIC with Streptococcus pneumoniae was 0.37 µg/mL (≈ 0.255 µM); against Klebsiella pneumoniae, more than 128 µg/mL.

The term pIC50 denotes the IC50 on a negative log10 scale, so that one unit is a factor of ten. Low values mean a high IC50, high ones a low IC50. `CC[C@@H](C)[C@@H]1NC(=O)[C@@H](CC(C)C)NC(=O)[C@H](CC(C)C)NC(=O)[C@H](CC(=O)c2ccccc2NC=O)NC(=O)CNC(=O)[C@H](CC(N)=O)NC1=O`: the MIC with Staphylococcus aureus [1] was more than 128 µg/mL; in [2], more than 128 µg/mL; against Streptococcus pneumoniae it was more than 100 µg/mL; against Klebsiella pneumoniae it was more than 128 µg/mL; with Staphylococcus aureus [3], more than 128 µg/mL. For the same molecule, the pIC50 with SF-268, in the assay on HepG2, with MCF7 and in the assay with NCI-H460 was less than 4.00 throughout.

Take `CC[C@@H](C)[C@@H]1NC(=O)[C@@H](CC(C)C)NC(=O)[C@H](CC(C)C)NC(=O)[C@H](Cc2c[nH]c3ccccc23)NC(=O)CNC(=O)[C@H](CC(N)=O)NC1=O` [DESOTAMIDE] (cyclo(GWL[dL][aIle]N)): the MIC against Staphylococcus aureus [1] is more than 128 µg/mL; in assay [2], 32 µg/mL (≈ 45.9 µM); in the assay with Streptococcus pneumoniae, 12.5 µg/mL (≈ 17.9 µM); with Klebsiella pneumoniae, more than 128 µg/mL; against Staphylococcus aureus [3], 16 µg/mL (≈ 23 µM). Also, the pIC50 in the assay with SF-268, with HepG2, in the assay with MCF7 and in the assay on NCI-H460 was less than 4.00 each time.

Consider `CC(C)C[C@@H]1NC(=O)[C@H](Cc2c[nH]c3ccccc23)NC(=O)CNC(=O)[C@H](CC(N)=O)NC(=O)[C@H](C(C)C)NC(=O)[C@@H](CC(C)C)NC1=O`, for which the MIC in the assay on Staphylococcus aureus [1] is more than 128 µg/mL; in [2], 32 µg/mL (≈ 46.9 µM); in the assay on Streptococcus pneumoniae it was 12.5 µg/mL (≈ 18.3 µM); against Klebsiella pneumoniae, more than 128 µg/mL; with Staphylococcus aureus [3], 16 µg/mL (≈ 23.4 µM). For the same molecule, the pIC50 in the assay on SF-268, in the assay with HepG2, in the assay with MCF7 and with NCI-H460 was less than 4.00 each time.

For `CC[C@@H](C)[C@@H]1NC(=O)[C@@H](CC(C)C)NC(=O)[C@H](CC(C)C)NC(=O)[C@H](CC(=O)c2ccccc2N)NC(=O)CNC(=O)[C@H](CC(N)=O)NC1=O`, the MIC is more than 128 µg/mL in the assay with Staphylococcus aureus [1]; more than 128 µg/mL in assay [2]; more than 100 µg/mL against Streptococcus pneumoniae; more than 128 µg/mL with Klebsiella pneumoniae; more than 128 µg/mL against Staphylococcus aureus [3]. The pIC50 in the assay with SF-268, in the assay on HepG2, with MCF7 and in the assay on NCI-H460 was less than 4.00 each time.

The values are drawn from ChEMBL document CHEMBL3352821, “Cyclic Hexapeptides from the Deep South China Sea-Derived Streptomyces scopuliridis SCSIO ZJ46 Active Against Pathogenic Gram-Positive Bacteria” (J Nat Prod, 2014).
